Measurements: patent publication US11180657B2, “Polysulfonated fluorescence dyes” (ATTO-TEC GmbH, priority 2017, dated 2021)
Marks after values point to notes of the source that are not given here.

Columns and labels:
Format in all cases: physicochemical
[1] = Absorption maximum of the dye
Text: (§1) Examples of the compounds according to the invention are listed in Tables 2-6, where the structures as well as the absorption and fluorescence maxima are indicated. The spectra of selected compounds are shown FIGS. 5-18.

[2] = Fluorescence maximum of the dye; details: solvent PBS pH 7.4
Text: as §1

[3] = Lactone or pseudobase formation in aqueous weakly alkaline solution; details: aqueous weakly alkaline solutions; reversible
Text: Normally such lactones are adequately stabilized only in aprotic solvents such as acetone or chloroform. In protic solvents the carboxyl group is deprotonated and a slightly more short-wave absorbing and fluorescent zwitterion is formed. In the exemplary compounds, however, colorless compounds are formed due to the strong electron attraction of the indicated substituents, due to internal ester formation and the associated interruption of the conjugated system. If the carboxyl group is not free but is present as an ester or tertiary amide, so-called pseudobases are formed, through nucleophilic attack (hydroxide ions etc.) at the central carbon atom, which is stronger positivized by the electron-attracting substituents, which pseudobases are likewise colorless due to the interruption of the conjugated system. Both reactions are reversible; by changing the pH value, the dielectric constant (“polarity”) and/or the capability of hydrogen bridge bonding (“proticity”), the dye can be restored. Therefore such compounds can in principle be used as probes for the properties of their direct environment: Depending on the milieu, the molecules are present in colorless or colored form. Associated therewith is also a sort of fluorogenicity, because the longwave fluorescence appears only in the dye form.

[4] = Fluorescence quencher property (dye itself not fluorescent)
Text: A particular subgroup of the compounds according to the invention is fluorescence quenchers. These dyes are not fluorescent themselves, but can act as acceptors for the emission of fluorescent compounds. A widespread area of use of such quenchers is for instance the measurement of the geometry (distances, size, and arrangement of molecular groups) or the reactivity (enzyme activity, reaction speeds, etc.) using Förster resonance energy transfer (FRET). The fluorescence of the donor can only appear when the distance between donor and acceptor exceeds a critical value. Below this distance, the fluorescence of the donor is quenched by the acceptor (=quencher) which is not fluorescent by itself. An overview of the bioanalytical applications of the FRET technology is provided for example by A. Roda, M. Guardigli, E. Micheline, M. Mirasoli, Nanobioanalytical luminescence: Förster-type energy transfer methods, Anal. Bioanal. Chem. 393, 2009, 109-123.
Examples of quenchers according to the invention are compounds 14, 15, 16 and 17. These rhodamines represent a further development of the dyes designated as “violamines” because of their magenta-colored solutions, see for example H. E. Fierz-David, Künstliche Organische Farbstoffe [Artificial Organic Dyes], Springer-Verlag, Berlin, 1926, p. 276ff. However, also the structure of other dye classes may be modified in this way. Examples according to the invention include compounds 49, 50 and 51 from the class of carbopyronines.

Compound | λabs ([1]; solvent water/acetonitrile 1:1) | λfl [2] | formation of colorless lactone or pseudobase [3] | λabs ([1]; solvent PBS pH 7.4) | fluorescence quencher (not fluorescent itself, acceptor for emission of fluorescent compounds) [4]
O=C(O)C1CCCN1C(=O)c1ccccc1-c1c2cc(S(=O)(=O)O)/c(=N/Cc3ccc(S(=O)(=O)O)cc3S(=O)(=O)O)cc-2oc2cc(NCc3ccc(S(=O)(=O)O)cc3S(=O)(=O)O)c(S(=O)(=O)O)cc12 (centres unmarked) [Compound 10] | 534^c nm | 556^b nm | easily form a lactone or pseudobase |  | 
O=C(O)C1CCN(C(=O)c2ccccc2-c2c3cc(S(=O)(=O)O)/c(=N/Cc4ccc(S(=O)(=O)O)cc4S(=O)(=O)O)cc-3oc3cc(NCc4ccc(S(=O)(=O)O)cc4S(=O)(=O)O)c(S(=O)(=O)O)cc23)CC1 [Compound 11] | 529^c nm | 550^b nm | easily form a lactone or pseudobase |  | 
O=C(O)c1ccccc1-c1c2cc/c(=N/c3ccc(S(=O)(=O)O)cc3)cc-2oc2cc(Nc3ccc(S(=O)(=O)O)cc3)ccc12 [Compound 14] |  |  |  | 560^b nm | quenchers
CN(CCCC(=O)O)C(=O)c1ccccc1-c1c2cc/c(=N\c3ccc(S(=O)(=O)O)cc3)c(S(=O)(=O)O)c-2oc2c(S(=O)(=O)O)c(Nc3ccc(S(=O)(=O)O)cc3)ccc12 [Compound 17] | 555^c nm |  |  |  | quenchers
CN(CCCC(=O)O)C(=O)c1ccccc1-c1c2cc(S(=O)(=O)O)/c(=N/CCc3ccc(S(=O)(=O)O)cc3)cc-2oc2cc(N)c(S(=O)(=O)O)cc12 [Compound 20] | 528^c nm | 550^b nm | easily form a lactone or pseudobase |  | 

Other lines, results leading:

λabs ([1]; solvent water/acetonitrile 1:1) | λfl [2] | formation of colorless lactone or pseudobase [3] | λabs ([1]; solvent PBS pH 7.4) | fluorescence quencher (not fluorescent itself, acceptor for emission of fluorescent compounds) [4] | Compound
558^c nm |  |  |  | quenchers | O=C(O)c1ccccc1-c1c2cc(S(=O)(=O)O)/c(=N/c3ccc(S(=O)(=O)O)cc3)cc-2oc2cc(Nc3ccc(S(=O)(=O)O)cc3)c(S(=O)(=O)O)cc12 [Compound 15]
566^c nm |  |  |  | quenchers | CN(CCCC(=O)O)C(=O)c1ccccc1-c1c2cc(S(=O)(=O)O)/c(=N/c3ccc(S(=O)(=O)O)cc3)cc-2oc2cc(Nc3ccc(S(=O)(=O)O)cc3)c(S(=O)(=O)O)cc12 [Compound 16]
 |  |  | 648^b nm | quenchers | CC1(C)c2cc(Nc3ccc(S(=O)(=O)O)cc3)ccc2C(c2c(F)c(F)c(SCC(=O)O)c(F)c2F)=c2cc3c(cc21)=[N+](Cc1ccc(S(=O)(=O)O)cc1S(=O)(=O)O)CCC3 [Compound 49]
 |  |  | 669^b nm | quenchers | CC1=CC(C)(C)[N+](Cc2ccc(S(=O)(=O)O)cc2S(=O)(=O)O)=c2cc3c(cc21)=C(c1c(F)c(F)c(SCC(=O)O)c(F)c1F)c1ccc(Nc2ccc(S(=O)(=O)O)cc2)cc1C3(C)C [Compound 50]
 |  |  | 650^b nm | quenchers | CC1(C)c2cc(Nc3ccc(S(=O)(=O)O)cc3)ccc2C(c2c(F)c(F)c(SCC(=O)O)c(F)c2F)=c2cc3c(cc21)=[N+](Cc1ccc(S(=O)(=O)O)cc1S(=O)(=O)O)C(C)(C)CC3CS(=O)(=O)O (centres unmarked) [Compound 51]
